From patent publication US4390547A, “2,2-Dimethyl-3-(substituted ethyl)cyclopropane carboxylate pesticidal compositions and methods” (priority 1981, dated 1983)

Assays:
guppies = assay: Fish toxicity test (Test Example 4); assay type: in vivo; settings: concentration killing 50% of female guppies during 48 hours, 20° C.; [Mixture] = cis/trans 50/50
Description: The mixture was stirred well to prepare a test water. Ten female guppies from 3 to 4 months of age were released into the test water and maintained at 20° C. The concentration of the test compound at which 50% of the guppies were killed during the ensuring 48 hours was determined. [This concentration is referred to as TLm (medium tolerance limit, ppm)].
A rank corresponds to TLm of not less than 10 ppm.
B rank corresponds to TLm of 0.5-10 ppm.
C rank corresponds to TLm of not more than 0.5 ppm.

[1] = test system: housefly (Musca domestica); assay: Mortality test against houseflies by topical application (Test Example 1); assay type: in vivo; settings: 24 h
Description: Each test compound was accurately weighed and a 1% solution and an 0.1% solution of the sample in acetone were prepared. A 1 μl portion of either of the above solutions was micropipetted onto the thoracic dorsal part of each female adult housefly (Musca domestica) under ether anaesthesia and the fly was released in a high-walled dish together with feed. The dish was covered with a metal-wire net and maintained at 25° C. After 24 hours, the test flies were inspected for deaths and the mortality (%) was calculated. Thirty test flies were used per concentration group.

[2] = Light stability test (Test Example 3); assay type: physicochemical; settings: glass plate, uv light
Description: Into 2.0 ml of acetone were dissolved 80 mg of each test compound. A 5 μl portion of the solution was taken and spread on a glass plate (Micro Standard Cover Glass, 18 m/m No. 1, 200 pcs, Matsunami Glass Ind., Ltd.) and the acetone was evaporated. The specimen was exposed to ultraviolet light from a fluorescent lamp (Tokyo Shibaura Electric Co., Ltd., FL20BL, glow-type, 100 V, 24.5 W, wavelength=3600 A) which was fixed just above the specimen at a distance of 11 cm at a temperature of 31°-35° C. for a predetermined exposure time. The test liquid was washed away with 1.0 ml of methanol containing 0.04% of dioctyl phthalate as an internal reference and high-speed liquid chromatography was carried out on the washings to determine the residual amount of the test compound.

[3] = test system: houseflies (Musca domestica); assay: Mortality test against houseflies by the settling mist method (Utility Examples 2 and 3); assay type: in vivo; settings: cis/trans 50/50, 24 hours
Description: 0.2 part of each of Compounds (1) to (38) was prepared and 0.8 part of piperonyl butoxide was added to each of them. To this mixture was added a sufficient amount of kerosene to make 100 parts, followed by stirring. By this procedure there was obtained an oil preparation of each Compound.
To 0.1 part of each of Compounds (1) to (38) was added 0.08 part of permethrin, followed by the addition of a sufficient amount of kerosene to make 100 parts. The mixture was stirred to obtain an oil preparation of each compound.
(§1) By the settling mist method, a mortality test against houseflies, (Musca domestica) was carried out using the oil preparations obtained according to Formulation Example 1 from Compounds (1), (5), (7), (9), (11) and (15) [Each compound is a mixture of cis- and trans-isomer in a ratio 50/50]. After 24 hours, the flies were examined for deaths. The mortality (%) was not less than 90% for each of Compounds (1), (5), (7), (9), (11) and (15).
as §1, with “against houseflies” for “against houseflies, (Musca domestica)”, “obtained in” for “obtained according to”, “Example 3” for “Example 1”, “(9), (11), (12), (15), (17)” for “(9), (11)”, “and (28)” for “and (15)”, “and (28).” for “and (15).”

green rice leafhoppers = assay: Mortality of green rice leafhoppers on sprayed rice seedlings (Utility Example 1); settings: green rice leafhopper, in vivo, 24 h
Description: (§2) To 30 parts of each of Compounds (1) to (38) were added 50 parts of xylene and 20 parts of Sorpol SM-200 (a surfactant, trademark of Toho Chemical Co., Ltd.). The mixture was stirred well and dissolved to obtain a 30% emulsifiable concentrate.
The emulsifiable concentrate prepared from Compounds (7), (11), (12), (15), (17), (21) and (22) [Each compound is a mixture of cis- and trans-isomer in a ratio of 50/50] in Formulation Example 5 were each diluted 300-fold with water. Then, each of the dilutions was sprayed over rice seedlings 25 days after sowing at the rate of 10 ml/pot. The pot was covered with a wire net and 15 green rice leafhoppers were released under the net. After 24 hours, the leafhoppers were examined for deaths. The mortality (%) was not less than 90% for each of Compounds (7), (11), (12), (15), (17), (21) and (22).

[4] = test system: common cabbage worms (Pieris rapae crucivora); settings: common cabbage worm, in vivo, 24 h
Description: as §2
The emulsifiable concentrate prepared from Compounds (7), (11) and (15) [Each compound is a mixture of cis- and trans-isomer in a ratio 20/80] in Formulation Example 5 were each diluted 1000-fold with water. Each of 15 common cabbage worms (Pieris rapae crucivora) per group were dipped into each of the dilutions for three seconds. Then, the worms were released on the leaves of the cabbage. After 24 hours, the worms were examined for deaths. The mortality (%) was not less than 90% for each of Compounds (7), (11) and (15).

[5] = oil preparation of Formulation Example 1 (0.2 part compound + 0.8 part piperonyl butoxide)
[6] = oil preparation of Formulation Example 3 (0.1 part compound + 0.08 part permethrin)

CC1(C)C(C=C(Cl)Cl)C1C(=O)OCc1cccc(Oc2ccccc2)c1 (mixture of isomers) [Permethrin, 3-phenoxybenzyl(+)-cis,trans-2,2-dimethyl-3-(2,2-dichlorovinyl)cyclopropanecarboxylate, reference compound]
TLm (medium tolerance limit) (guppies): C (C rank corresponds to TLm of not more than 0.5 ppm.)

CC1(C)[C@H](CC(Cl)(Cl)Cl)[C@H]1C(=O)OC(C#N)c1cccc(Oc2ccccc2)c1 (relative stereo) [(7) [Trans-isomer], 3-Phenoxy-α-cyanobenzyl 2,2-dimethyl-3-(2,2,2-trichloroethyl)cyclopropanecarboxylate]
mortality at 1 µg/fly [1]: 96.7%
mortality at 10 µg/fly [1]: 100%

C#CC(OC(=O)[C@@H]1[C@@H](CC(Cl)(Cl)Cl)C1(C)C)c1cccc(Oc2ccccc2)c1 (relative stereo) [(11) [Trans-isomer], 3-Phenoxy-α-ethynylbenzyl 2,2-dimethyl-3-(2,2,2-trichloroethyl)cyclopropanecarboxylate]
mortality at 1 µg/fly [1]: 100%
mortality at 10 µg/fly [1]: 100%
TLm (medium tolerance limit) (guppies): A (A rank corresponds to TLm of not less than 10 ppm.)

C#CC(OC(=O)[C@@H]1[C@H](CC(C)(Cl)Cl)C1(C)C)c1cccc(Oc2ccccc2)c1 (relative stereo) [(13) [Cis-isomer], 3-Phenoxy-α-ethynylbenzyl 2,2-dimethyl-3-(2,2-dichloropropyl)cyclopropanecarboxylate]
remaining at 3.5 h [2]: 100%
remaining at 72 h [2]: 88%
remaining at 120 h [2]: 73%
TLm (medium tolerance limit) (guppies): A (A rank corresponds to TLm of not less than 10 ppm.)

CC1(C)C(CC(Cl)(Cl)Cl)C1C(=O)OCc1cccc(Oc2ccccc2)c1 (stereo not drawn) [(1), 3-Phenoxybenzyl 2,2-dimethyl-3-(2,2,2-trichloroethyl)cyclopropanecarboxylate]
mortality (%) [3, 5]: not less than 90%
mortality (%) [3, 6]: not less than 90%

CC1(C)C(CC(Cl)(Cl)Cl)C1C(=O)OC(C#N)c1cccc(Oc2ccc(Cl)cc2)c1 (stereo not drawn) [(15), 3-(4-Chlorophenoxy)-α-cyanobenzyl 2,2-dimethyl-3-(2,2,2-trichloroethyl)cyclopropanecarboxylate]
mortality (%) (green rice leafhoppers): not less than 90%
mortality (%) [4]: not less than 90%

CC1(C)C(CC(Cl)(Cl)Cl)C1C(=O)OC(C#N)c1cccc(Oc2ccc(Br)cc2)c1 (stereo not drawn) [(17), 3-(4-Bromophenoxy)-α-cyanobenzyl 2,2-dimethyl-3-(2,2,2-trichloroethyl)cyclopropanecarboxylate]
mortality (%) [3, 6]: not less than 90%

C#CC(OC(=O)C1C(CC(Cl)(Cl)Cl)C1(C)C)c1cccc(Oc2ccc(Cl)cc2)c1 (stereo not drawn) [(21), 3-(4-Chlorophenoxy)-α-ethynylbenzyl 2,2-dimethyl-3-(2,2,2-trichloroethyl)cyclopropanecarboxylate]
mortality (%) (green rice leafhoppers): not less than 90%

CC1(C)[C@H](C(=O)OC(C(N)=S)c2cccc(Oc3ccccc3)c2)[C@@H]1CC(Cl)(Cl)Cl (stereo partly drawn) [(27) [Cis-isomer], 3-Phenoxy-α-thiocarbamoylbenzyl 2,2-dimethyl-3-(2,2,2-trichloroethyl)cyclopropanecarboxylate]
TLm (medium tolerance limit) (guppies): A (A rank corresponds to TLm of not less than 10 ppm.)

CC1(C)C(CC(Cl)(Cl)Cl)C1C(=O)OCc1coc(Cc2ccccc2)c1 (stereo not drawn) [(28), 5-Benzyl-3-furylmethyl 2,2-dimethyl-3-(2,2,2-trichloroethyl)cyclopropanecarboxylate]
mortality (%) [3, 6]: not less than 90%

CC(Cl)(Cl)CC1C(C(=O)OCc2cccc(Oc3ccccc3)c2)C1(C)C (stereo not drawn) [Compound (5), 3-Phenoxybenzyl 2,2-dimethyl-3-(2,2-dichloropropyl)cyclopropanecarboxylate]
mortality (%) [3, 5]: not less than 90%
mortality (%) [3, 6]: not less than 90%

CC1(C)C(CC(Cl)(Cl)Cl)C1C(=O)OC(C#N)c1cccc(Oc2ccccc2)c1 (stereo not drawn) [Compound (7), 3-Phenoxy-α-cyanobenzyl 2,2-dimethyl-3-(2,2,2-trichloroethyl)cyclopropanecarboxylate]
mortality (%) (green rice leafhoppers): not less than 90%
mortality (%) [4]: not less than 90%

CC(Cl)(Cl)CC1C(C(=O)OC(C#N)c2cccc(Oc3ccccc3)c2)C1(C)C (stereo not drawn) [Compound (9), 3-Phenoxy-α-cyanobenzyl 2,2-dimethyl-3-(2,2-dichloropropyl)cyclopropanecarboxylate]
mortality (%) [3, 5]: not less than 90%
mortality (%) [3, 6]: not less than 90%

C#CC(OC(=O)C1C(CC(Cl)(Cl)Cl)C1(C)C)c1cccc(Oc2ccccc2)c1 (stereo not drawn) [Compound (11), 3-Phenoxy-α-ethynylbenzyl 2,2-dimethyl-3-(2,2,2-trichloroethyl)cyclopropanecarboxylate]
mortality (%) (green rice leafhoppers): not less than 90%
mortality (%) [4]: not less than 90%

C#CC(OC(=O)C1C(CC(Br)(Br)Br)C1(C)C)c1cccc(Oc2ccccc2)c1 (stereo not drawn) [Compound (12), 3-Phenoxy-α-ethylnylbenzyl 2,2-dimethyl-3-(2,2,2-tribromoethyl)cyclopropanecarboxylate]
mortality (%) (green rice leafhoppers): not less than 90%
